Data on two compounds can be found in ChEMBL document CHEMBL4387741, “Optimization of novel reversible Bruton's tyrosine kinase inhibitors identified using Tethering-fragment-based screens” (Bioorg Med Chem, 2019).

Experiment [1] addresses Citron Rho-interacting kinase (Homo sapiens) (UniProt O14578). As to the kind of experiment: Inhibition of wild-type human partial length CIT (M68 to E432 residues) expressed in bacterial expression system at 1 uM by Kinomescan method relative to control.
Experiment [2] has as its target Non-receptor tyrosine-protein kinase TNK1 (Homo sapiens) (UniProt Q13470). Kind of experiment: Inhibition of wild-type human full length TNK1 (M1 to P661 residues) expressed in bacterial expression system at 1 uM by Kinomescan method relative to control.
Experiment [3] addresses Aurora kinase C (Homo sapiens) (UniProt Q9UQB9). Kind of experiment: Inhibition of wild-type human full length AURKC (M1 to S275 residues) expressed in bacterial expression system at 1 uM by Kinomescan method relative to control.
The target in experiment [4] is Serine/threonine-protein kinase Sgk3 (Homo sapiens) (UniProt Q96BR1). As to the kind of experiment: Inhibition of wild-type human partial length SGK3 (M119 to L496 residues) expressed in mammalian expression system at 1 uM by Kinomescan method relative to control.
In experiment [5] the test system is Epidermal growth factor receptor (Homo sapiens), P00533 [L858R]. As to the kind of experiment: Inhibition of human partial length EGFR L858R mutant (R669 to V1011 residues) expressed in bacterial expression system at 1 uM by Kinomescan method relative to control.
For experiment [6], the target named is Beta-adrenergic receptor kinase 1 (Homo sapiens) (UniProt P25098). As to the kind of experiment: Inhibition of wild-type human full length GRK2 (M1 to L689 residues) expressed in mammalian expression system at 1 uM by Kinomescan method relative to control.
Experiment [7] addresses RAC-alpha serine/threonine-protein kinase (Homo sapiens) (UniProt P31749). Kind of experiment: Inhibition of wild-type human partial length AKT1 expressed in bacterial expression system at 1 uM by Kinomescan method relative to control.
Experiment [8] has as its target Dual specificity protein kinase CLK2 (Homo sapiens) (UniProt P49760). Kind of experiment: Inhibition of wild-type human partial length CLK2 (D144 to R498 residues) expressed in bacterial expression system at 1 uM by Kinomescan method relative to control.
Experiment [9] has as its target Aurora kinase B (Homo sapiens) (UniProt Q96GD4). Kind of experiment: Inhibition of wild-type human partial length AURKB (D25 to A303 residues) expressed in mammalian expression system at 1 uM by Kinomescan method relative to control.
Experiment [10] concerns Leucine-rich repeat serine/threonine-protein kinase 2 (Homo sapiens), Q5S007 [G2019S]. As to the kind of experiment: Inhibition of human partial length LRRK2 G2019S mutant (H970 to E2527 residues) expressed in mammalian expression system at 1 uM by Kinomescan method relative to control.
Experiment [11] addresses Mitogen-activated protein kinase 11 (Homo sapiens) (UniProt Q15759). As to the kind of experiment: Inhibition of wild-type human full length p38-beta (M1 to Q364 residues) expressed in bacterial expression system at 1 uM by Kinomescan method relative to control.
For experiment [12], the target named is MAP/microtubule affinity-regulating kinase 4 (Homo sapiens) (UniProt Q96L34). Kind of experiment: Inhibition of wild-type human partial length MARK4 (K29 to G340 residues) expressed in bacterial expression system at 1 uM by Kinomescan method relative to control.
The target of experiment [13] is Serine/threonine-protein kinase Nek11 (Homo sapiens) (UniProt Q8NG66). As to the kind of experiment: Inhibition of wild-type human partial length NEK11 (M1 to E313 residues) expressed in mammalian expression system at 1 uM by Kinomescan method relative to control.
Sequence of Serine/threonine-protein kinase Nek11 (Homo sapiens) (Q8NG66 whole entry, the tested form may be a part): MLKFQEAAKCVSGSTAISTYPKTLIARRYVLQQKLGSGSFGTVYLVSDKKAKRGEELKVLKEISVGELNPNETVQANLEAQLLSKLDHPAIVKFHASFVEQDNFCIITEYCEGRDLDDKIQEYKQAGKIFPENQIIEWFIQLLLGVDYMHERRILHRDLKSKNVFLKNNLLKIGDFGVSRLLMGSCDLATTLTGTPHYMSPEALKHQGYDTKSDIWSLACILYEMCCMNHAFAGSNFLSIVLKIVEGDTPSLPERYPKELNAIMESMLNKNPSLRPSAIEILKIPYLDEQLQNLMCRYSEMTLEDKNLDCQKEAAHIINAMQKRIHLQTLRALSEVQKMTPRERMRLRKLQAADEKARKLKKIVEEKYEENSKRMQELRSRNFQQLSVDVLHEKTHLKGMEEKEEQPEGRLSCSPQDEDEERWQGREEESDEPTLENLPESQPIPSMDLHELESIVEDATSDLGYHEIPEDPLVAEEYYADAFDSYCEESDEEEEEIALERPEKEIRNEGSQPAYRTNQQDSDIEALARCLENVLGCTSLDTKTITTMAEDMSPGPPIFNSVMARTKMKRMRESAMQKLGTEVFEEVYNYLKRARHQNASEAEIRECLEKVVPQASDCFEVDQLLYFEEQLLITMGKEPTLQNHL
The target in experiment [14] is Serine/threonine-protein kinase PLK2 (Homo sapiens) (UniProt Q9NYY3). Kind of experiment: Inhibition of wild-type human partial length PLK2 (H58 to F354 residues) expressed in mammalian expression system at 1 uM by Kinomescan method relative to control.
Experiment [15] concerns Epidermal growth factor receptor (Homo sapiens), P00533 [G719S]. Kind of experiment: Inhibition of human partial length EGFR G719S mutant (R669 to V1011 residues) expressed in bacterial expression system at 1 uM by Kinomescan method relative to control.
Experiment [16] deals with Serine/threonine-protein kinase OSR1 (Homo sapiens) (UniProt O95747). Kind of experiment: Inhibition of wild-type human full length OSR1 (M1 to S527 residues) expressed in mammalian expression system at 10 uM by Kinomescan method relative to control.
For experiment [17], the target named is Fibroblast growth factor receptor 3 (Homo sapiens) (UniProt P22607). Kind of experiment: Inhibition of wild-type human partial length FGFR3 (R442 to S771 residues) expressed in bacterial expression system at 10 uM by Kinomescan method relative to control.
Sequence of Fibroblast growth factor receptor 3 (Homo sapiens) (P22607 23-806 limits assumed): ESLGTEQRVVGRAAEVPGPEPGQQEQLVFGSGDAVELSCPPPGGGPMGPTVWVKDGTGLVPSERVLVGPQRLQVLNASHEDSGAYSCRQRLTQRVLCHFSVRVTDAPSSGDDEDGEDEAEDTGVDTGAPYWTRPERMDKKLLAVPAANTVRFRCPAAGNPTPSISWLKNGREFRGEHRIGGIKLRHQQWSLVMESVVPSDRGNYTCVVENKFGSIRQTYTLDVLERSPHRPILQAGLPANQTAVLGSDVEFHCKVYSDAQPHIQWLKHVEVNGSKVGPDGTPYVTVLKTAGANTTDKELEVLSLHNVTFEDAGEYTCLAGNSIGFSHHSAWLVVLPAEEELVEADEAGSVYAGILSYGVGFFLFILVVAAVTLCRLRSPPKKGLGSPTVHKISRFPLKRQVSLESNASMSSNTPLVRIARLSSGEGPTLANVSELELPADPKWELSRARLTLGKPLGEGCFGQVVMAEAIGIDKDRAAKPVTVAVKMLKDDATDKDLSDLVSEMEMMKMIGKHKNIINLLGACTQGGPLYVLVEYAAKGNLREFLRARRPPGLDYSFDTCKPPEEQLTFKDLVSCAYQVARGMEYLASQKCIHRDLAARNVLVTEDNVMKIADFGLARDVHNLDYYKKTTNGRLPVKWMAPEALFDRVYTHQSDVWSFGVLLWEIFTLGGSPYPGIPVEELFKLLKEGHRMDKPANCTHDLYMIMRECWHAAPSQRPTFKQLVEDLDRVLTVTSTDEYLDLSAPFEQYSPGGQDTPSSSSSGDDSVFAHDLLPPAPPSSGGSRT
Experiment [18] has as its target Cyclin-dependent kinase 2 (Homo sapiens) (UniProt P24941). As to the kind of experiment: Inhibition of wild-type human full length CDK2 (M1 to L298 residues) expressed in bacterial expression system at 10 uM by Kinomescan method relative to control.
Experiment [19] deals with Serine/threonine-protein kinase 32C (Homo sapiens) (UniProt Q86UX6). Kind of experiment: Inhibition of wild-type human partial length YANK3 (M68 to G486 residues) expressed in bacterial expression system at 10 uM by Kinomescan method relative to control.
Experiment [20] concerns Epidermal growth factor receptor (Homo sapiens), P00533 [L861Q]. As to the kind of experiment: Inhibition of human partial length EGFR L861Q mutant (R669 to V1011 residues) expressed in bacterial expression system at 10 uM by Kinomescan method relative to control.
Sequence of Epidermal growth factor receptor (Homo sapiens), P00533 [L861Q] (P00533 whole entry L861Q, the tested form may be a part): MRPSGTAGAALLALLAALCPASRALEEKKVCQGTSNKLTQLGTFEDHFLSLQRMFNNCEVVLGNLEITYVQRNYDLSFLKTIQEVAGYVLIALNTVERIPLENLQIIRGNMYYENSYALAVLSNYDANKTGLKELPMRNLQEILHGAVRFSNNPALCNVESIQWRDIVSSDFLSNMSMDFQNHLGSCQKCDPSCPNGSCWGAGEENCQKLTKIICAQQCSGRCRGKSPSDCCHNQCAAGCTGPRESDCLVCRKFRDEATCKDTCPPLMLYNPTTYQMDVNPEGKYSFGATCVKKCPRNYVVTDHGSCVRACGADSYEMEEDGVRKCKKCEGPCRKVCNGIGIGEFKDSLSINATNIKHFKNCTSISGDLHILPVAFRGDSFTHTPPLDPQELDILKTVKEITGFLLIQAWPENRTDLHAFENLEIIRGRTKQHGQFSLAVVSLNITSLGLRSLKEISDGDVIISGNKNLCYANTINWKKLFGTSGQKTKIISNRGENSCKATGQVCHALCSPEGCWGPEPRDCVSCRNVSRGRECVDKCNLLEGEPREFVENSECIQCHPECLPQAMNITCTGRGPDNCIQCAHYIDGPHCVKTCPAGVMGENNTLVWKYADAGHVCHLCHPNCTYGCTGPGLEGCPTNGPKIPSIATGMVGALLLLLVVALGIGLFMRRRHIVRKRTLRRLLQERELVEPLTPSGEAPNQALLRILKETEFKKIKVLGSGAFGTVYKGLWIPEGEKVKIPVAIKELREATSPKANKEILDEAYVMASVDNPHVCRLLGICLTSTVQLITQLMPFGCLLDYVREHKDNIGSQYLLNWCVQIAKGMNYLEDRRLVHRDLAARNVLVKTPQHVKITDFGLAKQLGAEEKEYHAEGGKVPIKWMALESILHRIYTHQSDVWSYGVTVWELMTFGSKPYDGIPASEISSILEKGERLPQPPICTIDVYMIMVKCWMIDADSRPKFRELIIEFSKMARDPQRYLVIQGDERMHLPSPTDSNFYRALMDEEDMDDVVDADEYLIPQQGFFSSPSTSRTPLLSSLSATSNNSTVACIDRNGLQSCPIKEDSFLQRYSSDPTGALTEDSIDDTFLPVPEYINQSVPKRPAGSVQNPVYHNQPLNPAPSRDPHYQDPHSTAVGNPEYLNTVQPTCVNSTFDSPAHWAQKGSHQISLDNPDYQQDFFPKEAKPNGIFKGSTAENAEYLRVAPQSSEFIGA
In experiment [21] the target is RAC-alpha serine/threonine-protein kinase (Homo sapiens) (UniProt P31749). Kind of experiment: Inhibition of wild-type human partial length AKT1 expressed in bacterial expression system at 10 uM by Kinomescan method relative to control.
Sequence of RAC-alpha serine/threonine-protein kinase (Homo sapiens) (P31749 whole entry, the tested form may be a part): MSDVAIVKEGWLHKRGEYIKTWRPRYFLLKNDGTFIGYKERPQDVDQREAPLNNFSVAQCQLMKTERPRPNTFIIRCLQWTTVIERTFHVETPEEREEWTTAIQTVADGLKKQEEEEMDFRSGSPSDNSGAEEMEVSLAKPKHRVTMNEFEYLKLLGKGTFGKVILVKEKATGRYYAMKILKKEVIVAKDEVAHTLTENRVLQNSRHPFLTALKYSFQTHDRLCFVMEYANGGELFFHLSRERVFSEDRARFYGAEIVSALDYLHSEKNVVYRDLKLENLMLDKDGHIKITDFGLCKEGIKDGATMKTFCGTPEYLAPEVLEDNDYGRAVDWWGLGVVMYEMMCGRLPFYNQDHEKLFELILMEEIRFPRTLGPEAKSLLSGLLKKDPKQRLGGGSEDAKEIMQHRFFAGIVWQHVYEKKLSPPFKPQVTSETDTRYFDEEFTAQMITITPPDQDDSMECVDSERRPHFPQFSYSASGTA
In experiment [22] the test system is Epidermal growth factor receptor (Homo sapiens), P00533 [UNDEFINED MUTATION]. Kind of experiment: Inhibition of human partial length EGFR L747-T751del/Sins mutant expressed in bacterial expression system at 10 uM by Kinomescan method relative to control.
The subject of experiment [23] is Phosphatidylinositol 4,5-bisphosphate 3-kinase catalytic subunit alpha isoform (Homo sapiens), P42336 [H1047L]. As to the kind of experiment: Inhibition of human partial length PIK3CA H1047L mutant (R108 to N1068 residues) expressed in mammalian expression system at 10 uM by Kinomescan method relative to control.
Experiment [24] addresses Mitogen-activated protein kinase kinase kinase 7 (Homo sapiens) (UniProt O43318). Kind of experiment: Inhibition of wild-type human partial length TAK1 (M1 to Q303 residues) expressed in mammalian expression system at 10 uM by Kinomescan method relative to control.
Experiment [25] concerns Phosphatidylinositol 4,5-bisphosphate 3-kinase catalytic subunit alpha isoform (Homo sapiens), P42336 [Q546K]. As to the kind of experiment: Inhibition of human partial length PIK3CA Q546K mutant (R108 to N1068 residues) expressed in mammalian expression system at 10 uM by Kinomescan method relative to control.
Experiment [26] concerns the target Serine/threonine-protein kinase 35 (Homo sapiens) (UniProt Q8TDR2). Kind of experiment: Inhibition of wild-type human partial length STK35 (G182 to A534 residues) expressed in bacterial expression system at 10 uM by Kinomescan method relative to control.
In experiment [27] the target is NT-3 growth factor receptor (Homo sapiens) (UniProt Q16288). Kind of experiment: Inhibition of wild-type human partial length TRKC (Q531 to G825 residues) expressed in mammalian expression system at 10 uM by Kinomescan method relative to control.
Sequence of NT-3 growth factor receptor (Homo sapiens) (Q16288 32-839 limits assumed): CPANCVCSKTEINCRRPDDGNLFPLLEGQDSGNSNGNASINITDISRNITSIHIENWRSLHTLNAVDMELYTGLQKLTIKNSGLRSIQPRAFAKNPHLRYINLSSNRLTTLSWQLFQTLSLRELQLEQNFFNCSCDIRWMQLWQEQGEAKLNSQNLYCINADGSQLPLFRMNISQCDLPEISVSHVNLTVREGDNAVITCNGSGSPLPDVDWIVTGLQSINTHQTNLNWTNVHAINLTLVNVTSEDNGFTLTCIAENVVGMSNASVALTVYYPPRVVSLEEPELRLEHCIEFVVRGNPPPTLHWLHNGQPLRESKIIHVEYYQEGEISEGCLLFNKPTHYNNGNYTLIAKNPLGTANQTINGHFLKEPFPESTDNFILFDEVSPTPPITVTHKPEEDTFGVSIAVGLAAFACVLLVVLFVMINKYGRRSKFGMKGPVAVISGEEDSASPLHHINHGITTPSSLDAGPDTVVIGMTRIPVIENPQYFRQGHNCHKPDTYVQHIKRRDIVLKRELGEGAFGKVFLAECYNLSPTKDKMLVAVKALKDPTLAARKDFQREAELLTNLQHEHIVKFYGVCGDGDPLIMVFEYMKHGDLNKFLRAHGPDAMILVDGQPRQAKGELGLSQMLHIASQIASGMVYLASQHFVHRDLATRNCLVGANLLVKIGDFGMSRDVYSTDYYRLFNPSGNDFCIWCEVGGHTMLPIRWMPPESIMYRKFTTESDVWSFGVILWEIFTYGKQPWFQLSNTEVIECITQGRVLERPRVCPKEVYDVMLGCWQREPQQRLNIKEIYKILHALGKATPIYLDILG

Sequence of Aurora kinase C (Homo sapiens) (Q9UQB9 whole entry, the tested form may be a part): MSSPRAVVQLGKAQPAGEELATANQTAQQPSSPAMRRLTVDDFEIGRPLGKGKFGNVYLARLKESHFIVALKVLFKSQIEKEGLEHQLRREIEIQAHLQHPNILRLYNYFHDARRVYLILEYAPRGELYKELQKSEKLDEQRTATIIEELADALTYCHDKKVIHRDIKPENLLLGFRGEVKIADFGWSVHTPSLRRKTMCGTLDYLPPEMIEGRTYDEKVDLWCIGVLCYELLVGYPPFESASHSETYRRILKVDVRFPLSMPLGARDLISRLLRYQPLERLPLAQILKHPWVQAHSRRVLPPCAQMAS
Sequence of Dual specificity protein kinase CLK2 (Homo sapiens) (P49760 whole entry, looked up, the tested form may be a part): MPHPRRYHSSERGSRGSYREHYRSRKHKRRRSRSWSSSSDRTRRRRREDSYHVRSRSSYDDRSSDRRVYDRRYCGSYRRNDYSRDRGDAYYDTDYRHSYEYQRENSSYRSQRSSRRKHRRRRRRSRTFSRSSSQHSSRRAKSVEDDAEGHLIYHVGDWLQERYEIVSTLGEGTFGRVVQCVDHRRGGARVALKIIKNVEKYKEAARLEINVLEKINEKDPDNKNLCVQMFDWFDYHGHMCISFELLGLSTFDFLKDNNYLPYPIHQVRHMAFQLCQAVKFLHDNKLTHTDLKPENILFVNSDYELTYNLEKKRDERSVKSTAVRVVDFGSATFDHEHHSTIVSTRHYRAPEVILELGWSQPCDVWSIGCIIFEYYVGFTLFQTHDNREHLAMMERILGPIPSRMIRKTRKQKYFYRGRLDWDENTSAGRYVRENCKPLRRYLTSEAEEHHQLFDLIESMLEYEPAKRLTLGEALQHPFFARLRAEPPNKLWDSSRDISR

Regarding `O=C(Nc1cccc([C@@H]2CN(c3ncnc4[nH]ccc34)CCN2CCO)c1)Nc1c(F)cccc1N1CCCC1`, the inhibition came out at 64% in [1]; 65% in [2]; 33% in experiment [3]; 84% in [4]; 99% in [5]; 96% in experiment [6]. In addition, the inhibition amounted to 100% in [7]; 86% in experiment [8]; 4.4% in experiment [9]; 100% in experiment [10]; 92% in experiment [11]; 77% in [12]. Moreover, the inhibition was determined as 86% in experiment [13], 87% in experiment [14] and 90% in experiment [15].
Consider `O=C(Nc1cccc([C@H]2CCCN(c3ncnc4[nH]ccc34)C2)c1)Nc1ccccc1N1CCCC1`, for which the inhibition turned out to be 81% in [16]; 46% in experiment [17]; 67% in experiment [18]; 100% in experiment [19]; 85% in experiment [20]; 100% in [21]. Moreover, the inhibition in experiment [22] was 88%; in experiment [23] it was 100%; in [24] it was 24%; in experiment [25], 81%; in experiment [26] it was 99%; in experiment [27], 36%.

In general, inhibition refers to the relative decrease from the control value, in per cent. A higher inhibition goes with a response far below the control.
